Test results: patent US20130197032A1, “[…] COMPOUNDS FOR THE TREATMENT OF NEUROLOGICAL AND […] DISORDERS” (A. CARLSSON RESEARCH AB, priority 2010, published 2013)

Tests used:
human 5-HT1E receptor = target: T1, human 5-HT1E receptor (Homo sapiens, UniProt P28566); test: R-SAT assay 5-HT1E; type: cell-based; conditions: Table 3, 5-HT1E; percent response of reference BRL 54443
T1 construct: expressed in transfected cells; host or cells: NIH/3T3

human M2 receptor = target: T2, human M2 receptor (Homo sapiens, UniProt P08172); test: R-SAT assay M2; type: cell-based; conditions: Table 3, M2; percent response of reference Carbachol
T2 construct: expressed in transfected cells; host or cells: NIH/3T3
T2 sequence (P08172 1-466): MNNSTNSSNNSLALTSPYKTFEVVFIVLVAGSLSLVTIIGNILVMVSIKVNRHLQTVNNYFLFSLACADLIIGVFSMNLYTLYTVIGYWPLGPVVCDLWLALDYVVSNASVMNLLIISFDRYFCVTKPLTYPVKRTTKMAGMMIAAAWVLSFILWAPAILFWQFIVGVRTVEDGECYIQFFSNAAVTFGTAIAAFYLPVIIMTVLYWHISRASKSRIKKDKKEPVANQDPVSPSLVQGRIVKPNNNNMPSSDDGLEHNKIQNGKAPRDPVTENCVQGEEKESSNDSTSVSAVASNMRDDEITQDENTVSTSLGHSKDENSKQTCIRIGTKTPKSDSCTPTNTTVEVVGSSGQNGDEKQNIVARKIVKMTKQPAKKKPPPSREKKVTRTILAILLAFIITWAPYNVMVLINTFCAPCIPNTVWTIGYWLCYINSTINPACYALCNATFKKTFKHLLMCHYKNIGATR

habituated rats = test: Locomotion in habituated rats, photocell activity boxes; conditions: 5-35 minutes after injection; for locomotion in habituated rats: 6.25, 12.5, 50, 100, 200 and 400 μmol/kg sc, vs Control; for locomotion, accumulated unrepeated beam breaks, means±SEM of pooled groups: habituated rats, 50 μmol/kg sc, 30 minutes period, controls 23±6
Protocol: Rats were housed in a normal daylight cycle and the experiments were carried out during daytime. […] During the following 5 minutes test drugs were injected, after which the rats were returned to the boxes for another 60 minutes. Five by five rows of photocell beams at floor level allowed a computer based-system to register horizontal activity. Motor activity is presented as accumulated number of unrepeated beam breaks, i.e. several consecutive breakings of one beam is counted as one beam break. The software was set to register behavior from the rats' first introduction into the arena until it was finally removed from the box, i.e. for 110 or 130 minutes.
Locomotion was measured as accumulated unrepeated beam breaks. […] This was followed by 60 minutes of registration. Data are calculated from a 30 minutes period, 5-35 minutes after injection, and plotted as means and SEM. […] Data were calculated from a 30 minutes period, 5-35 minutes after injection.
The effect of haloperidol on the locomotor stimulation was also studied in habituated rats (see FIG. 10). Locomotion was measured as accumulated unrepeated beam breaks. Rats were given haloperidol (0.05, 0.2, 0.5 mg/kg, sc) and were then allowed to habituate for 65 minutes. […] Data are calculated from a 30 minutes period, taken 5-35 minutes after injection, and plotted as means and SEM. N=4-5.

human M1 receptor = target: T3, human M1 receptor (Homo sapiens, UniProt P11229); test: R-SAT assay M1; type: cell-based; conditions: Table 3, M1; percent response of reference Carbachol
T3 construct: expressed in transfected cells; host or cells: NIH/3T3
T3 sequence (P11229 whole entry): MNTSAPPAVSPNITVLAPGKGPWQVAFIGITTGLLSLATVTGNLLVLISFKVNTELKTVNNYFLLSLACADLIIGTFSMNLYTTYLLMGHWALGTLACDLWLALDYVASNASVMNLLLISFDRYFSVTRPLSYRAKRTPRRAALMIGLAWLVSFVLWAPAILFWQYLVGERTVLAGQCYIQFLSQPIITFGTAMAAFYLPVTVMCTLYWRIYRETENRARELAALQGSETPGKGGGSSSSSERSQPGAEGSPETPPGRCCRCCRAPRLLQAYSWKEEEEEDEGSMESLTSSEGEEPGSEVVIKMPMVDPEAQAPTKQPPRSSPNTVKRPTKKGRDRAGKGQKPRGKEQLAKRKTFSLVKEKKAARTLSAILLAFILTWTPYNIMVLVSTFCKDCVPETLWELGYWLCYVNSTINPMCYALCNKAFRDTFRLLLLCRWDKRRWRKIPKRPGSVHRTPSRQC

human 5-HT1B receptor = human 5-HT1B receptor (Homo sapiens, UniProt P28222); test: R-SAT assay 5-HT1B; type: cell-based; conditions: Table 3, 5-HT1B; for Eff (%): percent response of reference 5-CT
Sequence of human 5-HT1B receptor (P28222 whole entry): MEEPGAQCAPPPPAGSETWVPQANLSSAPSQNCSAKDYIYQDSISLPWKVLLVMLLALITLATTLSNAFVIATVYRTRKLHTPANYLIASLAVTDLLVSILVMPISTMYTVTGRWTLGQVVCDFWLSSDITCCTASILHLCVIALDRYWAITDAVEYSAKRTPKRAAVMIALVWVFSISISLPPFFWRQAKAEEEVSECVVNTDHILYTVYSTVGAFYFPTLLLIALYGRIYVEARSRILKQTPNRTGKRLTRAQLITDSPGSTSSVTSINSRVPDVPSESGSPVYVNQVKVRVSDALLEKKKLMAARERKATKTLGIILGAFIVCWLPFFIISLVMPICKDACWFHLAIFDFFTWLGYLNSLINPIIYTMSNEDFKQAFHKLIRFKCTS

D2 receptors = D2 receptors (Homo sapiens, UniProt P14416); test: GTPγS binding assay at D2; type: biochemical; parameters: expressed in transfected cells
Sequence of D2 receptors (P14416 1-414 isoform P14416-2): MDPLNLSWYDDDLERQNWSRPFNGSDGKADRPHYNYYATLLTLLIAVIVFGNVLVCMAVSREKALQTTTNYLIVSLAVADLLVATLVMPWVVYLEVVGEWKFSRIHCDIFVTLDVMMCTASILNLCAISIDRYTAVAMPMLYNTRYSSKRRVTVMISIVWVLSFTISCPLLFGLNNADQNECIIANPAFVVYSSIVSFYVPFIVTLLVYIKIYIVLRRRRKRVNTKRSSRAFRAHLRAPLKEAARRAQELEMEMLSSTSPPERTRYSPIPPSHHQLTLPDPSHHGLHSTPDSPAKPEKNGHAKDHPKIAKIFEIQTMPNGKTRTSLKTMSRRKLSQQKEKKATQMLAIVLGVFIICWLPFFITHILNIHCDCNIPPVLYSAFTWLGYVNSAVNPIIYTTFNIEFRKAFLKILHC
Protocol: Cells were not centrifuged following cell scraping, but were collected directly into the ice-cold nitrogen cavitation chamber.
50 μl/well Wheat-Germ Agglutinin SPA beads (Perkin Elmer, Shelton, Conn.) were added to the plates and the plates incubated for 1 hour. The plates were then centrifuged at 1,000×g for 10 minutes and read on a Top Count NXT (Perkin Elmer, Shelton, Conn.).
To relate the results observed in R-SAT™ to a more conventional assay system, these ligands were also tested for the ability to induce GTPγS binding through D2 receptors.

human alpha2C receptor = target: T4, human alpha2C receptor (Homo sapiens, UniProt P18825); test: R-SAT assay α2C; type: cell-based; conditions: Table 3, α2C; percent response of reference UK 14,306
T4 construct: expressed in transfected cells; host or cells: NIH/3T3 cells, transient transfection, pSI vector
T4 sequence (P18825 1-462): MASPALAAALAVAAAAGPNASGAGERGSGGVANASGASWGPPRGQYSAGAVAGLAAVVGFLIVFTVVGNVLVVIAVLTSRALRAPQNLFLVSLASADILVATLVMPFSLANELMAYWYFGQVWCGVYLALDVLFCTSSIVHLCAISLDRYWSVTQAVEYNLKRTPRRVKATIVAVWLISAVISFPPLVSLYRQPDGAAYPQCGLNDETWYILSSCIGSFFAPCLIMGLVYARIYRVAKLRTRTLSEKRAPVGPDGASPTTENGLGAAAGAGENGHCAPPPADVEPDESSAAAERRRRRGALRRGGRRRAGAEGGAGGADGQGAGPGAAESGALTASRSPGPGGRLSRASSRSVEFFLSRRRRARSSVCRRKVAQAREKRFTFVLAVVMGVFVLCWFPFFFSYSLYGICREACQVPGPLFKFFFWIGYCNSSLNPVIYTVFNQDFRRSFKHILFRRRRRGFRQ

active rats = test: Motor activity in active rats, video tracking; type: in vivo; conditions: 30, 60, 120 μmol/kg sc 30 minutes prior to recording
Protocol: Motor activity experiments in both active and habituated rats were performed on male Sprague-Dawley rats (Charles River, Germany) weighing 280-320 g. Prior to testing, rats were housed in groups of four or five in ventilated Macrolon type IV cages for approximately one week.
The rats were housed in reverse daylight cycle and all handling of the animals was performed in dim light. Test drugs were administered s.c. 30 minutes prior to registration of behavior. Single rats were introduced into rectangular arenas (l/w/h: 150×100×40 cm) illuminated indirectly by one infrared (IR) lamp (Neocom, South Korea). The rats' movements were recorded to digital (MPEG2) video files using an IR sensitive video camera (Panasonic WV-CPR480, lens: Panasonic LA-408C3) connected to a PC equipped with a MPEG-encoder (MVR1000SX, Canopus Co.).
Suspected outliers were evaluated one at the time with Grubbs' test for outliers (Grubbs F E (1969) Procedures for detecting outlying observations in samples. Technometrics 11(1):1-21).
The third series of experiments was performed in drug naive rats (FIG. 8). Rats were injected sc with saline (C, 0.9%) or either test drug 30 minutes prior to video recording. […] Behavior was registered under infrared light in rectangular arenas (150×100×40 cm) by video tracking. Motor activity is shown as velocity. Shown are means and SEM.

[1] = system: reserpine-pretreated mice; test: Motor activity in monoamine-depleted (reserpine-pretreated) mice, video tracking; conditions: for motor activity (distance moved, DM 1.5): reserpine 10 mg/kg ip 20 h prior, test drug ip just prior to recording, first 30 minutes, vs reserpine only group
human alpha2B receptor = target: T5, human alpha2B receptor (Homo sapiens, UniProt P18089); test: R-SAT assay α2B; type: cell-based; conditions: Table 3, α2B; percent response of reference UK 14,306
T5 construct: expressed in transfected cells; host or cells: NIH/3T3 cells, transient transfection, pSI vector
T5 sequence (P18089 whole entry): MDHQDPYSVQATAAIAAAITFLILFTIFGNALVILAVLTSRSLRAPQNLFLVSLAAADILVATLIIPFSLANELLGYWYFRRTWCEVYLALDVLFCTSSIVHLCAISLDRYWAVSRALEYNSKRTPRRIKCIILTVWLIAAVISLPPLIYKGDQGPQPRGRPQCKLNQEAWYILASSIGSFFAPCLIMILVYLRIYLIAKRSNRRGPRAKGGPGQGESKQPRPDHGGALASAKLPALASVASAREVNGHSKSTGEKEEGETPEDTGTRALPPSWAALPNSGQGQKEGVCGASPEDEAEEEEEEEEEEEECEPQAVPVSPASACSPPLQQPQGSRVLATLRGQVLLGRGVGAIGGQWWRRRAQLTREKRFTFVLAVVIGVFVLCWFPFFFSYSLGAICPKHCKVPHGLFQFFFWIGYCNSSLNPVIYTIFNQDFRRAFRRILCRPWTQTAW

drug naive mice = test: Head twitch induction in mice; type: in vivo; conditions: DOI 1 mg/kg ip, OSU6162 enantiomers 9.375-300 μmol/kg ip, 10 min before registration
Protocol: The animals used in the head twitch experiments were individually placed in Macrolon type II cages and allowed to habituate to these test cages during 30 minutes before the video registration of behavior began. […] The animals were videotaped for 10 minutes; the behavior was scored during the first 5 minutes. The number of head twitches was counted from the videotapes by a person blind to the treatment.
In FIG. 5, the number of head twitches produced during 5 minutes is shown. The mice were habituated to the test cages during 30 minutes before the video registration of behavior began. […] Shown are means and SEM, n=6-12.

T1 sequence (P28566 whole entry): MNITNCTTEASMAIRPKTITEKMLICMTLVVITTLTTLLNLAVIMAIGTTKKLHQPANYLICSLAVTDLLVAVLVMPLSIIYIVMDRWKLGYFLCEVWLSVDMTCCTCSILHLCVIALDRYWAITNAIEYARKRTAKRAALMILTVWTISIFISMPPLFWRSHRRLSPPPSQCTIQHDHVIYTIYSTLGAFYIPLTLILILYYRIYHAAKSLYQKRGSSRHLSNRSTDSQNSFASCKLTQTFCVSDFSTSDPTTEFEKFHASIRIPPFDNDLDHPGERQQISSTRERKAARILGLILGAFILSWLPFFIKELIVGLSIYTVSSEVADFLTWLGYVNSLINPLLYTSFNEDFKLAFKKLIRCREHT

Row | Structure (SMILES) | Eff (%) (human 5-HT1E receptor) | Eff (%) (human M2 receptor) | locomotion in habituated rats (habituated rats) | locomotion, accumulated unrepeated beam breaks, means±SEM of pooled groups (habituated rats) | Eff (%) (human M1 receptor) | Eff (%) (human 5-HT1B receptor) | Emax at 50 µM (D2 receptors; read-out: GTPγS Eff %, response at 50 μM) | Eff (%) (human alpha2C receptor) | motor activity (velocity) in active rats (active rats) | motor activity (distance moved, DM 1.5) [1] | effect on motor activity compared with the (−)-enantiomer ([1]; reserpine-pretreated mice, 250 μmol/kg ip, p<0.01) | Eff (%) (human alpha2B receptor) | head twitches produced during 5 minutes (drug naive mice) | EC50 (human 5-HT1B receptor; negative logarithm of EC50 in molar, read-out: pEC50 (converted)) | EC50 (D2 receptors; negative logarithm of EC50 in molar, HEK293T membranes, mean ± SEM, read-out: GTPγS pEC50 (converted)) | GTPγS Eff % (D2 receptors; percent response of reference ligand dopamine, mean ± SEM)
1 | CCCN1CCC[C@H](c2cccc(S(C)(=O)=O)c2)C1 [(+)-OSU6162, (3R)-3-[3-(methylsulfonyl)phenyl]-1-propylpiperidine] | 5% | 22% | significant locomotor stimulation was observed for all doses but the two lowest | 95±12 unrepeated beam breaks | 11% | 20% | 36% | 13% | decreased motor activity in active rats | statistically significant increase in motor activity at 125, 250 and 500 μmol/kg, with a peak response at 250 μmol/kg | much larger effect on motor activity | 8% | produced head twitches but to a lesser degree than DOI |  |  | 
2 | CCCN1CCC[C@@H](c2cccc(S(C)(=O)=O)c2)C1 [(−)-OSU6162, (3S)-3-[3-(methylsulfonyl)phenyl]-1-propylpiperidine] | 5% | 9% | significant locomotor stimulation was observed for all doses but the lowest | 129±11 unrepeated beam breaks | 5% | 75% |  | 6% | decreased motor activity in active rats | statistically significant increase in motor activity at 125 and 250 μmol/kg |  | 13% | produced head twitches but to a lesser degree than DOI | 2.51 µM | 0.501 µM | 37 ± 9%
